Where a SMILES comes first, the peptide text is derived from it. [ ]: non-standard residue; d: D form. The star is where a group is joined. C18 diacid = O=C(O)CCCCCCCCCCCCCCCCC(=O)*; C16 diacid = O=C(O)CCCCCCCCCCCCCCC(=O)*; pGlu = O=C1CC[C@@H](C(=O)O)N1
How the values were obtained:
Type in all cases: cell-based
human GIP receptor [1] = molecular target: T1, human GIP receptor (Homo sapiens, UniProt P48546); assay: cAMP antagonism (CisBio cAMP Dynamic 2 HTRF assay); parameters: pCMV-Script vector; conditions: Table 1C, CisBio, HEK-293 cells; for IC50: cAMP antagonism, nM (IC50), agonist GIP1-42 at EC50
T1 sequence (P48546 22-466): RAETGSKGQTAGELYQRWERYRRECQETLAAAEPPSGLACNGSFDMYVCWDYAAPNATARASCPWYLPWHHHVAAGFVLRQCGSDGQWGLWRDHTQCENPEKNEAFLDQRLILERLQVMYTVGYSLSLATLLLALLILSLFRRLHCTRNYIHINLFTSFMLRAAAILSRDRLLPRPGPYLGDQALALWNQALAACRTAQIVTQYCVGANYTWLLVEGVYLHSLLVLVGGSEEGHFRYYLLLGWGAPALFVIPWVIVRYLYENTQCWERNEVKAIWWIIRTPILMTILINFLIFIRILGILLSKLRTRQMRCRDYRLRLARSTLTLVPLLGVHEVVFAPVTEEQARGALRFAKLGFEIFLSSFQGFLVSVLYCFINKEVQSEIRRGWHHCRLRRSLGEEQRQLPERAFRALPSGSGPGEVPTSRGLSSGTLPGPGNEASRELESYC
Procedure, shortened: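 Four-parameter fits of cAMP dose-response gave pIC50. cAMP fall was quantified by HTRF competition, ratio 665/620 nm after 60 min at room temperature, against a cAMP standard curve.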

human GIP receptor [2] = molecular target: T1, human GIP receptor; assay: cAMP accumulation, antagonism (DiscoveRx HitHunter cAMP XS assay); parameters: host or cells: COS-7 (transient, calcium phosphate; pCMV-Script vector); conditions: Table 1B, DiscoveRx; for cAMP antagonism, % inhib: COS-7 cells, % inhibition of Emax; for IC50: cAMP antagonism, nM (IC50), transiently transfected COS-7 cells
Procedure, shortened: (§1)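 cAMP accumulation measured by HitHunter cAMP XS in COS-7 cells transiently expressing human GIP receptor, after 30 min in HBS with 1 mM IBMX at 37 °C. Antagonists preincubated 10 min before GIP giving 50-80% of maximum, then 20 min more; agonist mode used 30 min ligand exposure.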

human GIP receptor [3] = molecular target: T1, human GIP receptor; assay: cAMP agonism (CisBio cAMP Dynamic 2 HTRF assay); conditions: for Emax: HEK293, read-out: cAMP agonism, % Efficacy, Table 1C, HEK-293 cells
Method: To test for agonistic properties at the GIP receptor, compounds were diluted and added to cells as described above and incubated for 30 min at 37° C. The resulting increase in intracellular cAMP was determined using the CisBio cAMP Dynamic 2 HTRF Assay Kit as described above.

human GIP receptor [4] = molecular target: T1, human GIP receptor; assay: cAMP accumulation, agonism (DiscoveRx HitHunter cAMP XS assay); parameters: host or cells: COS-7 (transient, calcium phosphate; pCMV-Script vector); conditions: for cAMP agonism, Emax: Table 1B, DiscoveRx, COS-7 cells; for Emax: COS-7, read-out: cAMP agonism, Emax
Procedure, shortened: as §1

SMILES	cAMP antagonism, % inhib (human GIP receptor [1]) [%]	cAMP antagonism, % inhib (human GIP receptor [2]) [%]	IC50 (human GIP receptor [2]) [nM]	Emax (human GIP receptor [3]) [%]	cAMP agonism, Emax (human GIP receptor [4])	IC50 (human GIP receptor [1]) [nM]	cAMP agonism, % Efficacy (human GIP receptor [3]; Table 1C, HEK-293 cells) [%]	Emax (human GIP receptor [4]) [%]
CC[C@H](C)[C@H](NC(=O)[C@H](CO)NC(=O)[C@H](Cc1ccc(O)cc1)NC(=O)[C@H](CC(=O)O)NC(=O)[C@H](CO)NC(=O)[C@@H](NC(=O)[C@H](Cc1ccccc1)NC(=O)[C@@H](NC(=O)CNC(=O)[C@@H]1CCC(=O)N1)[C@@H](C)O)[C@@H](C)CC)C(=O)N[C@@H](C)C(=O)N[C@@H](CCSC)C(=O)N[C@@H](CC(=O)O)C(=O)N[C@@H](CCCNC(=N)N)C(=O)N[C@H](C(=O)N[C@@H](CCCCNC(=O)CCCCCCCCCCCCCCCCC(=O)O)C(=O)N[C@@H](CCC(N)=O)C(=O)N[C@@H](CCC(N)=O)C(=O)N[C@@H](CC(=O)O)C(=O)N[C@@H](Cc1ccccc1)C(=O)N[C@H](C(=O)N[C@@H](CC(N)=O)C(=O)N[C@@H](Cc1c[nH]c2ccccc12)C(=O)N[C@@H](CC(C)C)C(=O)N[C@@H](CC(C)C)C(=O)N[C@@H](C)C(=O)N[C@@H](CCC(N)=O)C(=O)N[C@@H](CCCNC(=N)N)C(N)=O)C(C)C)[C@@H](C)CC [AT391] ([pGlu]GTFISDYSIAMDRIK(C18 diacid)QQDFVNWLLAQR-NH2)	95	100	10	0	No Agonism			
CC[C@H](C)[C@H](NC(=O)[C@H](CO)NC(=O)[C@H](Cc1ccc(O)cc1)NC(=O)[C@H](CC(=O)O)NC(=O)[C@H](CO)NC(=O)[C@@H](NC(=O)[C@H](Cc1ccccc1)NC(=O)[C@@H](NC(=O)CNC(=O)CN)[C@@H](C)O)[C@@H](C)CC)C(=O)N[C@@H](C)C(=O)N[C@@H](CCSC)C(=O)N[C@@H](CC(=O)O)C(=O)N[C@@H](CCCNC(=N)N)C(=O)N[C@H](C(=O)N[C@@H](CCCCNC(=O)CCCCCCCCCCCCCCC(=O)O)C(=O)N[C@@H](CCC(N)=O)C(=O)N[C@@H](CCC(N)=O)C(=O)N[C@@H](CC(=O)O)C(=O)N[C@@H](Cc1ccccc1)C(=O)N[C@H](C(=O)N[C@@H](CC(N)=O)C(=O)N[C@@H](Cc1c[nH]c2ccccc12)C(=O)N[C@@H](CC(C)C)C(=O)N[C@@H](CC(C)C)C(=O)N[C@@H](C)C(=O)N[C@@H](CCC(N)=O)C(=O)N[C@@H](CCCNC(=N)N)C(N)=O)C(C)C)[C@@H](C)CC [AT496] (H-GGTFISDYSIAMDRIK(C16 diacid)QQDFVNWLLAQR-NH2; N-terminus assumed)	100	100	12	0	No Agonism	39.8		
CC[C@H](C)[C@H](NC(=O)[C@H](CO)NC(=O)[C@H](Cc1ccc(O)cc1)NC(=O)[C@H](CC(=O)O)NC(=O)[C@H](CO)NC(=O)[C@@H](NC(=O)[C@H](Cc1ccccc1)NC(=O)[C@@H](NC(=O)CNC(=O)[C@@H](N)CO)[C@@H](C)O)[C@@H](C)CC)C(=O)N[C@@H](C)C(=O)N[C@@H](CCSC)C(=O)N[C@@H](CC(=O)O)C(=O)N[C@@H](CCCNC(=N)N)C(=O)N[C@H](C(=O)N[C@@H](CCCCNC(=O)CCCCCCCCCCCCCCC(=O)O)C(=O)N[C@@H](CCC(N)=O)C(=O)N[C@@H](CCC(N)=O)C(=O)N[C@@H](CC(=O)O)C(=O)N[C@@H](Cc1ccccc1)C(=O)N[C@H](C(=O)N[C@@H](CC(N)=O)C(=O)N[C@@H](Cc1c[nH]c2ccccc12)C(=O)N[C@@H](CC(C)C)C(=O)N[C@@H](CC(C)C)C(=O)N[C@@H](C)C(=O)N[C@@H](CCC(N)=O)C(=O)N[C@@H](CCCNC(=N)N)C(N)=O)C(C)C)[C@@H](C)CC [AT498] (H-SGTFISDYSIAMDRIK(C16 diacid)QQDFVNWLLAQR-NH2; N-terminus assumed)	85	95	21			13.2	5	6
CC[C@H](C)[C@H](NC(=O)[C@H](CO)NC(=O)[C@H](Cc1ccc(O)cc1)NC(=O)[C@H](CC(=O)O)NC(=O)[C@H](CO)NC(=O)[C@@H](NC(=O)[C@H](Cc1ccccc1)NC(=O)[C@@H](NC(=O)CNC(=O)[C@@H]1CCCN1)[C@@H](C)O)[C@@H](C)CC)C(=O)N[C@@H](C)C(=O)N[C@@H](CCSC)C(=O)N[C@@H](CC(=O)O)C(=O)N[C@@H](CCCNC(=N)N)C(=O)N[C@H](C(=O)N[C@@H](CCCCNC(=O)CCCCCCCCCCCCCCC(=O)O)C(=O)N[C@@H](CCC(N)=O)C(=O)N[C@@H](CCC(N)=O)C(=O)N[C@@H](CC(=O)O)C(=O)N[C@@H](Cc1ccccc1)C(=O)N[C@H](C(=O)N[C@@H](CC(N)=O)C(=O)N[C@@H](Cc1c[nH]c2ccccc12)C(=O)N[C@@H](CC(C)C)C(=O)N[C@@H](CC(C)C)C(=O)N[C@@H](C)C(=O)N[C@@H](CCC(N)=O)C(=O)N[C@@H](CCCNC(=N)N)C(N)=O)C(C)C)[C@@H](C)CC [AT500] (H-PGTFISDYSIAMDRIK(C16 diacid)QQDFVNWLLAQR-NH2; N-terminus assumed)	77	90		4	No Agonism	66.8		
CC[C@H](C)[C@H](NC(=O)[C@H](CO)NC(=O)[C@H](Cc1ccc(O)cc1)NC(=O)[C@H](CC(=O)O)NC(=O)[C@H](CO)NC(=O)[C@@H](NC(=O)[C@H](Cc1ccccc1)NC(=O)[C@@H](NC(=O)CNC(=O)CN)[C@@H](C)O)[C@@H](C)CC)C(=O)N[C@@H](C)C(=O)N[C@@H](CCSC)C(=O)N[C@@H](CC(=O)O)C(=O)N[C@@H](CCCNC(=N)N)C(=O)N[C@H](C(=O)N[C@@H](CCCCNC(=O)CC[C@H](NC(=O)CCCCCCCCCCCCCCC(=O)O)C(=O)O)C(=O)N[C@@H](CCC(N)=O)C(=O)N[C@@H](CCC(N)=O)C(=O)N[C@@H](CC(=O)O)C(=O)N[C@@H](Cc1ccccc1)C(=O)N[C@H](C(=O)N[C@@H](CC(N)=O)C(=O)N[C@@H](Cc1c[nH]c2ccccc12)C(=O)N[C@@H](CC(C)C)C(=O)N[C@@H](CC(C)C)C(=O)N[C@@H](C)C(=O)N[C@@H](CCC(N)=O)C(=O)N[C@@H](CCCNC(=N)N)C(N)=O)C(C)C)[C@@H](C)CC [AT502] (HELM PEPTIDE1{G.G.T.F.I.S.D.Y.S.I.A.M.D.R.I.K.Q.Q.D.F.V.N.W.L.L.A.Q.R.[am]}|PEPTIDE2{[O=C(O)CCCCCCCCCCCCCCC(=O)[*:2]].[gGlu]}$PEPTIDE1,PEPTIDE2,16:R3-2:R2$$$V2.0; N-terminus assumed)	65	85	52	13				5
CC[C@H](C)[C@H](NC(=O)[C@H](CO)NC(=O)[C@H](Cc1ccc(O)cc1)NC(=O)[C@H](CC(=O)O)NC(=O)[C@H](CO)NC(=O)[C@@H](NC(=O)[C@H](Cc1ccccc1)NC(=O)[C@@H](NC(=O)CNC(=O)[C@@H](N)CO)[C@@H](C)O)[C@@H](C)CC)C(=O)N[C@@H](C)C(=O)N[C@@H](CCSC)C(=O)N[C@@H](CC(=O)O)C(=O)N[C@@H](CCCNC(=N)N)C(=O)N[C@H](C(=O)N[C@@H](CCCCNC(=O)CC[C@H](NC(=O)CCCCCCCCCCCCCCC(=O)O)C(=O)O)C(=O)N[C@@H](CCC(N)=O)C(=O)N[C@@H](CCC(N)=O)C(=O)N[C@@H](CC(=O)O)C(=O)N[C@@H](Cc1ccccc1)C(=O)N[C@H](C(=O)N[C@@H](CC(N)=O)C(=O)N[C@@H](Cc1c[nH]c2ccccc12)C(=O)N[C@@H](CC(C)C)C(=O)N[C@@H](CC(C)C)C(=O)N[C@@H](C)C(=O)N[C@@H](CCC(N)=O)C(=O)N[C@@H](CCCNC(=N)N)C(N)=O)C(C)C)[C@@H](C)CC [AT504] (HELM PEPTIDE1{S.G.T.F.I.S.D.Y.S.I.A.M.D.R.I.K.Q.Q.D.F.V.N.W.L.L.A.Q.R.[am]}|PEPTIDE2{[O=C(O)CCCCCCCCCCCCCCC(=O)[*:2]].[gGlu]}$PEPTIDE1,PEPTIDE2,16:R3-2:R2$$$V2.0; N-terminus assumed)	85	90	21	0	No Agonism	39.8		

From US12187773B2, “Modified GIP peptide analogues” (Antag Therapeutics ApS, priority 2018, dated 2025)
